Values joined by “and” are separate entries in the source; they are usually repeats but may differ in a detail not shown here. Identical values can stand only once. Counter-ions that a name gives are not always drawn. Like-named read-outs stand apart in the source and are kept apart here.
Legend:
HIV-1 (strain LAV-1) = test: Inhibition of HIV replication in PBM cells (supernatant RT activity); assay type: cell-based
[1] = test system: herpes simplex virus type 1; test: Plaque assay in Vero cells, HSV type 1; assay type: cell-based, HSV-1
Description: (§1) Methodology for Testing Antiviral Drugs for Inhibition of Replication of HSV-1 and HSV-2
(§2) Compounds are tested for inhibition of herpes simplex virus type 1 and herpes simplex virus type 2 using the method of Schinazi, et al., Antimicrobial Agents and Chemotherapy 22, 499-507 (1982). This is a plaque assay using Vero cells (African green monkey cells) infected with HSV.

[2] = test system: herpes simplex virus type 2; test: Plaque assay in Vero cells, HSV type 2; assay type: cell-based, HSV-2
Description: as §1, §2

[3] = target: HIV-1 reverse transcriptase (Human immunodeficiency virus type 1 group M subtype B, UniProt P04585); test: Inhibition of purified HIV-1 reverse transcriptase (cell free); assay type: biochemical
Description: Methodology for Testing Antiviral Drugs for Inhibition of HIV-1 Reverse Transcriptase
Cells and viruses are cultured as described above. […] 12,431-439 (1973). Cocktail, template, compound to be tested and reverse transcriptase are mixed together on ice, then incubated for one hour at 37° C.. The DNA synthesized is acid precipitated and the radioactivity measured, as described by Eriksson, B., et al., Antimicrobial Agents and Chemotherapy 31, 600-604 ([…]).

[4] = test system: reverse transcriptase of Rauscher murine leukemia virus; conditions: cited from earlier work
[5] = test system: reverse transcriptase of avian myeloblastosis virus; conditions: 10^-4 M; cited from earlier work
influenza A = conditions: upon exposure to light; concentrations as low as; cited from earlier work
herpes simplex viruses = conditions: upon exposure to light; concentrations as low as; cited from earlier work
[6] = human PBM cells, RT activity in supernatant five days after infection, read-out: EC50, inhibition of HIV replication in PBM cells
[7] = Human alphaherpesvirus 1, Dark, Vero cells plaque assay, read-out: EC50 HSV type 1 Dark
[8] = Human alphaherpesvirus 1, Light, Vero cells plaque assay, read-out: EC50 HSV type 1 Light
[9] = Human alphaherpesvirus 2, Dark, Vero cells plaque assay, read-out: EC50 HSV type 2 Dark
[10] = Human alphaherpesvirus 2, Light, Vero cells plaque assay, read-out: EC50 HSV type 2 Light
[11] = Human immunodeficiency virus 1, PBMC, 120 h, human PBM cells, RT activity in supernatant five days after infection, read-out: EC50, inhibition of HIV replication in PBM cells
[12] = purified enzyme, one hour at 37° C., read-out: EC50, inhibition of HIV reverse transcriptase
[13] = read-out: EC50, inhibition of HIV reverse transcriptase, purified enzyme, one hour at 37° C.
[14] = Human immunodeficiency virus 1, PBMC, 120 h, read-out: EC50, inhibition of HIV replication in PBM cells, human PBM cells, RT activity in supernatant five days after infection

With [Cu+2].c1ccc2c(c1)-c1nc-2nc2[n-]c(nc3nc(nc4[n-]c(n1)c1ccccc41)-c1ccccc1-3)c1ccccc21 [CuPHTH, Copper phthalocyanine] the EC50 (HIV-1 (strain LAV-1); [6]) was 46.9 µM.

Reactive Blue 15 gave an EC50 (HIV-1 (strain LAV-1); [6]) of no more than 1 µM.

In the case of Oc1ccc(-c2c3nc(c(-c4ccc(O)cc4)c4ccc([nH]4)c(-c4ccc(O)cc4)c4nc(c(-c5ccc(O)cc5)c5ccc2[nH]5)C=C4)C=C3)cc1 [TPP(4-OH)4, Tetra-(4-hydroxyphenyl)-porphyrin], the EC50 [1, 7] is reported as greater than 10 µM, the EC50 [1, 8] is reported as greater than 10 µM and the EC50 [2, 9] is reported as greater than 10 µM. It also gave an EC50 [2, 10] greater than 10 µM, an EC50 (HIV-1 (strain LAV-1); [11]) of 0.6 µM and an EC50 (HIV-1 (strain LAV-1); [6]) of 0.7 µM.

For Clc1ccc(-c2c3nc(c(-c4ccc(Cl)cc4)c4ccc([nH]4)c(-c4ccc(Cl)cc4)c4nc(c(-c5ccc(Cl)cc5)c5ccc2[nH]5)C=C4)C=C3)cc1 [TPP(4-Cl)4, Tetra-(4-chlorophenyl)-porphyrin], the EC50 (HIV-1 (strain LAV-1); [11]) was roughly 100 µM.

For “Hemin, bovine, (chloro protoporphyrin IX Fe(III)) [FePPIXCl]”, the EC50 [3, 12] is listed as 20.5 µM, the “Concentration inhibiting reverse transcriptase activity” value [4] is listed as 10^-4 M and the EC50 (HIV-1 (strain LAV-1); [6]) is listed as 49.3 µM. The “Inhibition of reverse transcriptase activity (in words)” value [5] was “not”.

Work on [Co+2].c1ccc2c(c1)-c1nc-2nc2[n-]c(nc3nc(nc4[n-]c(n1)c1ccccc41)-c1ccccc1-3)c1ccccc21 [CoPHTH, Cobalt phthalocyanine] yielded an EC50 (HIV-1 (strain LAV-1); [6]) of 100 µM.

For [Cl][Fe]1[n]2c3ccc2C(c2ccccc2)=C2C=CC(=N2)C(c2ccccc2)=c2ccc([n]21)=C(c1ccccc1)C1=NC(=C3c2ccccc2)C=C1 [FeTPPCl, Fe(III)-tetraphenylporphyrin chloride], the EC50 (HIV-1 (strain LAV-1); [6]) was roughly 100 µM.

For C[n+]1cccc(-c2c3nc(c(-c4ccccc4)c4ccc([nH]4)c(-c4ccc[n+](C)c4)c4nc(c(-c5ccccc5)c5ccc2[nH]5)C=C4)C=C3)c1 [TP-4, 5,15-Diphenyl-10,20-di(N-methyl-3-pyridyl)-porphyrin Cl-], the EC50 [3, 13] was 6.9 µM, the EC50 (HIV-1 (strain LAV-1); [11]) was less than 1 µM and the EC50 (HIV-1 (strain LAV-1); [6]) was 0.76 µM.

Work on C[n+]1ccc(-c2c3nc(c(-c4cc[n+](C)cc4)c4ccc([nH]4)c(-c4cc[n+](C)cc4)c4nc(c(-c5cc[n+](C)cc5)c5ccc2[nH]5)C=C4)C=C3)cc1.Cl.[Fe+3] [FeTMPyP, Fe(III)-tetra-(N-methyl-4-pyridyl)-porphyrin chloride] yielded an EC50 (HIV-1 (strain LAV-1); [6]) of 78.1 µM.

With “Copper phthalocyanine tetrasulfonic acid tetra-sodium salt [CuPHTHS4]” the EC50 (HIV-1 (strain LAV-1); [6]) was 22.4 µM.

Work on C[n+]1cccc(-c2c3nc(c(-c4ccccc4)c4ccc([nH]4)c(-c4ccccc4)c4nc(c(-c5ccc[n+](C)c5)c5ccc2[nH]5)C=C4)C=C3)c1 [CP-3, 5,10-Diphenyl-15,20-di(N-methyl-3-pyridyl)-porphyrin Cl-] yielded an EC50 [3] of 41.6 µM and an EC50 (HIV-1 (strain LAV-1); [11]) of 2.28 µM.

Molecule C[n+]1ccc(-c2c3nc(c(-c4cc[n+](C)cc4)c4ccc([nH]4)c(-c4cc[n+](C)cc4)c4nc(c(-c5cc[n+](C)cc5)c5ccc2[nH]5)C=C4)C=C3)cc1 [TMPyP, Tetra-(N-methyl-4-pyridyl)-porphyrin tosylate salt] has an EC50 ([1]; Human alphaherpesvirus 1, Vero, read-out: EC50 HSV type 1 Dark) of 0.04 µM, an EC50 ([1]; Human alphaherpesvirus 1, Vero, read-out: EC50 HSV type 1 Light) of 0.03 µM and an EC50 ([2]; Human alphaherpesvirus 2, Vero, read-out: EC50 HSV type 2 Dark) greater than 10 µM. The EC50 ([2]; Human alphaherpesvirus 2, Vero, read-out: EC50 HSV type 2 Light) was greater than 1 µM.

In the case of CC1=C(CCC(=O)O)c2cc3[nH]c(cc4nc(cc5[nH]c(cc1n2)c(C)c5C(C)O)C(C)=C4C(C)O)c(C)c3CCC(=O)O (stereo not drawn) [hematoporphyrin], the “Concentration inhibiting in vitro replication of influenza A” value (influenza A) is given as 0.5 µg/mL and the “Concentration inhibiting in vitro replication of herpes simplex viruses” value (herpes simplex viruses) is given as 0.5 µg/mL.

In the case of C1=Cc2nc1c(-c1ccccc1)c1ccc([nH]1)c(-c1ccccc1)c1nc(c(-c3ccccc3)c3ccc([nH]3)c2-c2ccccc2)C=C1 [TPP, Meso-tetraphenylporphine], the EC50 [3] is reported as greater than 100 µM, the EC50 [1, 7] is reported as greater than 10 µM and the EC50 [1, 8] is reported as 10 µM. The EC50 [2, 9] was greater than 10 µM, the EC50 [2, 10] was greater than 10 µM and the EC50 (HIV-1 (strain LAV-1); [14]) was 13.7 µM. The EC50 (HIV-1 (strain LAV-1); read-out: EC50, inhibition of HIV replication in PBM cells, human PBM cells, RT activity in supernatant five days after infection) was greater than 10 µM.

With C=CC1=C(C)c2cc3[nH]c(cc4nc(cc5[nH]c(cc1n2)c(C)c5C=C)C(C)=C4CCC(=O)OC)c(CCC(=O)OC)c3C [PPIXDME, Protoporphyrin IX dimethyl ester] the EC50 [3] was greater than 100 µM, the EC50 [1, 7] was greater than 10 µM and the EC50 [1, 8] was 10 µM. The EC50 [2, 9] was greater than 10 µM and the EC50 [2, 10] was greater than 10 µM.

Work on C=CC1=C(C)c2cc3[nH]c(cc4nc(cc5[nH]c(cc1n2)c(C)c5CCC(=O)O)C(CCC(=O)O)=C4C)c(C)c3C=C [PPIX, Protoporphyrin, disodium salt] yielded an EC50 [3] greater than 100 µM, an EC50 [1, 8] of less than 0.01 µM and an EC50 [2, 9] of 10 µM. The EC50 [2, 10] was 0.05 µM.

In the case of C[n+]1ccc(-c2c3nc(c(-c4ccccc4)c4ccc([nH]4)c(-c4ccccc4)c4nc(c(-c5cc[n+](C)cc5)c5ccc2[nH]5)C=C4)C=C3)cc1 [CP-4, 5,10-Diphenyl-15,20-di(N-methyl-4-pyridyl)-porphyrin Cl-], the EC50 [3] is reported as 26.9 µM, the “Difference in inhibition of HIV, dark versus light” value (HIV-1 (strain LAV-1)) is reported as “No significant differences in activity” and the EC50 (HIV-1 (strain LAV-1); Human immunodeficiency virus 1, PBMC, 120 h, read-out: EC50, inhibition of HIV replication in PBM cells) is reported as 0.38 µM. It also gave an EC50 (HIV-1 (strain LAV-1); Human immunodeficiency virus 1, PBMC, read-out: EC50, inhibition of HIV replication in PBM cells) of 0.43 µM.

O=C(O)c1ccc(-c2c3nc(c(-c4ccc(C(=O)O)cc4)c4ccc([nH]4)c(-c4ccc(C(=O)O)cc4)c4nc(c(-c5ccc(C(=O)O)cc5)c5ccc2[nH]5)C=C4)C=C3)cc1 [TPP(4-CO2 H)4, Tetra-(4-carboxyphenyl)-porphyrin] showed an EC50 [3] of 1.1 µM, an EC50 [1, 7] of 2.5 µM and an EC50 [1, 8] of 10 µM. The EC50 [2, 9] was greater than 10 µM and the EC50 [2, 10] was greater than 10 µM.

“Copper phthalocyanine 3,4'4'',4'''-tetrasulfonic acid [(CuPHTHS4)(3,4,4,4)]” gave an EC50 (HIV-1 (strain LAV-1); [6]) of no more than 1 µM.

For C[n+]1ccc(-c2c3nc(c(-c4ccccc4)c4ccc([nH]4)c(-c4ccccc4)c4nc(c(-c5cc[n+](C)cc5)c5ccc2[nH]5)C=C4)C=C3)cc1.[Ni+2] [Ni-CP4, Ni(II)-5,10-diphenyl-15,20-di(N-methyl-4-pyridyl)-porphyrin], the EC50 [3, 12] was 24.8 µM and the EC50 (HIV-1 (strain LAV-1); [6]) was 3.44 µM and 6.54 µM.

“Fe(III)-tetra-(4-methylphenyl)-porphyrin chloride [(FeTPP)(4-Cl)4]” gave an EC50 (HIV-1 (strain LAV-1); [6]) greater than 100 µM.

In the case of C[n+]1ccc(-c2c3nc(c(-c4ccccc4)c4ccc([nH]4)c(-c4cc[n+](C)cc4)c4nc(c(-c5ccccc5)c5ccc2[nH]5)C=C4)C=C3)cc1 [TP-3, 5,15-Diphenyl-10,20-di(N-methyl-4-pyridyl)-porphyrin Cl-], the EC50 [3, 13] is reported as 7.3 µM.

In the case of C[n+]1ccc(-c2c3nc(c(-c4cc[n+](C)cc4)c4ccc([nH]4)c(-c4ccccc4)c4nc(c(-c5ccccc5)c5ccc2[nH]5)C=C4)C=C3)cc1.[Cu+2] [Cu-CP4, Cu(II)-5,10-diphenyl-15,20-di(N-methyl-4-pyridyl)-porphyrin], the EC50 [3, 12] is reported as 57.4 µM and the EC50 (HIV-1 (strain LAV-1); [6]) is reported as 4.76 µM and 5.78 µM.

Molecule Cc1ccc(-c2c3nc(c(-c4ccc(C)cc4)c4ccc([nH]4)c(-c4ccc(C)cc4)c4nc(c(-c5ccc(C)cc5)c5ccc2[nH]5)C=C4)C=C3)cc1 [TPP(4-Me)4, Tetra-(4-methylphenyl)-porphyrin] has an EC50 [3] greater than 100 µM, an EC50 [1, 7] greater than 10 µM and an EC50 [1, 8] of 1 µM. For the same molecule, the EC50 [2, 9] was 3.95 µM and the EC50 [2, 10] was greater than 10 µM.

Molecule “Fe(III)-mu-oxo-dimer of tetraphenyl-porphyrin [μ-oxo-TPP]” has an EC50 (HIV-1 (strain LAV-1); [6]) greater than 100 µM.

With “Nickel phthalocyanine tetrasulfonic acid [NiPHTHS4]” the EC50 (HIV-1 (strain LAV-1); [6]) was 1.06 µM.

For Cl[Si]1(Cl)n2c3c4ccccc4c2N=C2N=C(N=c4c5ccccc5c(n41)=NC1=NC(=N3)c3ccccc31)c1ccccc12 [SiPHTHCl2, Silicon phthalocyanine dichloride], the EC50 (HIV-1 (strain LAV-1); [14]) was no more than 1 µM.

Cc1cccc(-c2c3nc(c(-c4cccc(C)c4)c4ccc([nH]4)c(-c4cccc(C)c4)c4nc(c(-c5cccc(C)c5)c5ccc2[nH]5)C=C4)C=C3)c1 [TPP(3-Me)4, Tetra-(3-methylphenyl)-porphyrin] gave an EC50 [1, 7] greater than 10 µM, an EC50 [1, 8] greater than 10 µM and an EC50 [2, 10] greater than 10 µM.

For “Copper-4,4',4'',4'''-tetra-aza-29H, 31H-phthalocyanine [CuPHTHN4]”, the EC50 (HIV-1 (strain LAV-1); [6]) was 100 µM.

Reference: patent US5281616A, “Porphyrin and phthalocyanine antiviral compositions” (priority 1992, dated 1994)
